Experiments:
[1] = molecular target: Integrin alpha-V/beta-3 (Homo sapiens, UniProt P05106+P06756); assay: Inhibition of high affinity radioligand binding to human alphaV-beta3 integrin; assay type: protein-complex assay
[2] = molecular target: T1, Integrin alpha-IIb/beta-3 (Homo sapiens) (UniProt P05106+P08514); assay: Inhibition of ADP-stimulated alphaIIb-beta3 integrin mediated human platelet aggregation at 10 uM
[3] = Compound was tested for plasma clearance on administered orally as aqueous solutions at 1 mpk and by iv at 0.2 mpk; assay type: ADME, organism-based; details: 0.2 mg/kg
[4] = Bioavailability (dose 1 mg/kg p.o. and 0.2 mg/kg i.v.); assay type: ADME, organism-based; details: eutheria, in vivo, po
[5] = molecular target: T1, Integrin alpha-IIb/beta-3 (Homo sapiens); assay: Inhibition of ADP-stimulated alphaIIb-beta3 integrin mediated human platelet aggregation at 5.7 uM
[6] = Partition coefficient (logP); assay type: physicochemical; details: octanol/water
[7] = molecular target: T1, Integrin alpha-IIb/beta-3 (Homo sapiens); assay: Inhibition of ADP-stimulated alphaIIb-beta3 integrin mediated human platelet aggregation at 776 uM
[8] = molecular target: T1, Integrin alpha-IIb/beta-3 (Homo sapiens); assay: Inhibition of ADP-stimulated alphaIIb-beta3 integrin mediated human platelet aggregation at 11 uM

Chain of Integrin alpha-V/beta-3 (P05106 27-788 limits assumed): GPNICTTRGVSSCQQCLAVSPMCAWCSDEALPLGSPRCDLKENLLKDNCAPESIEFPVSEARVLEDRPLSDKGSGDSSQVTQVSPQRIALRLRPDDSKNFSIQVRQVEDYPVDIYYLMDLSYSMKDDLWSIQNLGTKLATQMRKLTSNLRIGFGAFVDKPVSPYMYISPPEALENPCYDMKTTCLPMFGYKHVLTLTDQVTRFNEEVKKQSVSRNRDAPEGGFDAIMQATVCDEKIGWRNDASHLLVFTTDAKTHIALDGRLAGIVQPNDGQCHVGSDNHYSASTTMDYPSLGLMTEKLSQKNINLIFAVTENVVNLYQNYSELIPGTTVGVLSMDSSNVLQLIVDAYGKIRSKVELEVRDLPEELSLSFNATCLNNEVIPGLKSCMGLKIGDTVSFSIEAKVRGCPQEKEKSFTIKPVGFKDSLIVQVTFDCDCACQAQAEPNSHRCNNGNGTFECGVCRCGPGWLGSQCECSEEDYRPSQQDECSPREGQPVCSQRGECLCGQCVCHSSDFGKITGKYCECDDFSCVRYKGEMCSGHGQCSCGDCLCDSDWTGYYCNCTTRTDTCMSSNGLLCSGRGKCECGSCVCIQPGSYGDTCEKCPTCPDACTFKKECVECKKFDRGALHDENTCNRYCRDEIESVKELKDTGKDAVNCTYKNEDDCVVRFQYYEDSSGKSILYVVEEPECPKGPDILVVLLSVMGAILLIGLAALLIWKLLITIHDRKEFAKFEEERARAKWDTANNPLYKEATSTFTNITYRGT
Chain of Integrin alpha-V/beta-3 (P06756 31-889 limits assumed): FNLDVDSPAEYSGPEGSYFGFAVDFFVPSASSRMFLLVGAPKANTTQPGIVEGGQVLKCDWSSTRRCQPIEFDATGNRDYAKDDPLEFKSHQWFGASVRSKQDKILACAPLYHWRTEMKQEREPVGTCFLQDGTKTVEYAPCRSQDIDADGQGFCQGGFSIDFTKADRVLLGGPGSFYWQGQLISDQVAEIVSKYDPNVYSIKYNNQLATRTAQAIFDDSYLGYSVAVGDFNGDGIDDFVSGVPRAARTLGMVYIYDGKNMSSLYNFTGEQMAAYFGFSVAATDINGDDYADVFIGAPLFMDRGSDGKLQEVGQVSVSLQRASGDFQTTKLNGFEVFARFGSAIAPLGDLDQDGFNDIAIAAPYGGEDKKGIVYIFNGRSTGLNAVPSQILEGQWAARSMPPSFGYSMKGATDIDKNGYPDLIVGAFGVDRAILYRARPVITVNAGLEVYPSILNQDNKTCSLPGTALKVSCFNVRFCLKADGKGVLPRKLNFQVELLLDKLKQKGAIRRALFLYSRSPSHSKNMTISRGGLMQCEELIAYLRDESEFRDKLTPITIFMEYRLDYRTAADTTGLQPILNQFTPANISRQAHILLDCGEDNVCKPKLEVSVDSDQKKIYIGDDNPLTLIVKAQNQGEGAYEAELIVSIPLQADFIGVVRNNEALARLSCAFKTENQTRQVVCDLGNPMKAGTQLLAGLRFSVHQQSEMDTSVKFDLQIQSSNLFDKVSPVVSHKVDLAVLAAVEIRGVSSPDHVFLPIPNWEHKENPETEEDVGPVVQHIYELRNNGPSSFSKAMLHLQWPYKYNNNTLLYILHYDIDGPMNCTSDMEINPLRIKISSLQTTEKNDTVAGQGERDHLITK
Chain of Integrin alpha-V/beta-3 (P06756 891-1048 limits assumed): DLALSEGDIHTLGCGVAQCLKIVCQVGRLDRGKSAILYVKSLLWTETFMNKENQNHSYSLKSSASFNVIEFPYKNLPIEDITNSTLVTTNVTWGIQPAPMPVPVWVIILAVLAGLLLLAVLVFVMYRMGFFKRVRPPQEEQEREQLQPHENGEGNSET

IC50 [1] [nM]	inhibition [2] [%]	SMILES	also measured
0.49	30	COc1ccc([C@H](CC(=O)O)NC(=O)CN2CC[C@H](CCc3ccc4c(n3)NCCC4)C2=O)cc1F	
2.2	29	O=C(O)C[C@H](NC(=O)CN1CC[C@H](CCc2ccc3c(n2)NCCC3)C1=O)c1ccc2ccsc2c1	
3.7	19	O=C(O)C[C@H](NC(=O)CN1CC[C@H](CCc2ccc3c(n2)NCCC3)C1=O)c1ccc2ncsc2c1	
0.11	60	O=C(O)C[C@H](NC(=O)CN1CC[C@H](CCc2ccc3c(n2)NCCC3)C1=O)c1ccc2c(c1)OCC2	
4	8	O=C(O)C[C@H](NC(=O)CN1CC[C@H](CCc2ccc3c(n2)NCCC3)C1=O)c1ccccc1	
1.8	6	O=C(O)C[C@H](NC(=O)CN1CC[C@H](CCc2ccc3c(n2)NCCC3)C1=O)c1cccc(F)c1	
1.1	20	O=C(O)C[C@H](NC(=O)CN1CC[C@H](CCc2ccc3c(n2)NCCC3)C1=O)c1ccc2c(c1)CCO2	

The remaining lines, values behind:

SMILES	IC50 [1] [nM]	inhibition [2] [%]	also measured
O=C(O)C[C@H](NC(=O)CN1CC[C@H](CCc2ccc3c(n2)NCCC3)C1=O)c1ccc2c(c1)OCO2	0.32		clearance [3]: 25 mL/min/kg; bioavailability [4]: 30%; inhibition [5]: 50%; logP [6]: 0.26
O=C(O)C[C@H](NC(=O)CN1CC[C@H](CCc2ccc3c(n2)NCCC3)C1=O)c1ccc(-c2ccccc2)c(F)c1	0.57	3	
CCOc1ccc([C@H](CC(=O)O)NC(=O)CN2CC[C@H](CCc3ccc4c(n3)NCCC4)C2=O)cc1F	0.31	28	
O=C(O)C[C@H](NC(=O)CN1CC[C@H](CCc2ccc3c(n2)NCCC3)C1=O)c1cnc2ccccc2c1	0.04		inhibition [7]: 50%
O=C(O)C[C@H](NC(=O)CN1CC[C@H](CCc2ccc3c(n2)NCCC3)C1=O)c1ccc2[nH]c(=O)oc2c1	0.29		
O=C(O)C[C@H](NC(=O)CN1CC[C@H](CCc2ccc3c(n2)NCCC3)C1=O)c1ccc2c(c1)OC(F)(F)O2	5.8	3	logP [6]: 1.44
O=C(O)C[C@H](NC(=O)CN1CC[C@H](CCc2ccc3c(n2)NCCC3)C1=O)c1ccc2nc(O)oc2c1		19	
O=C(O)C[C@H](NC(=O)CN1CC[C@H](CCc2ccc3c(n2)NCCC3)C1=O)c1ccc2c(c1)CCC2	29		
O=C(O)CCNC(=O)CN1CC[C@H](CCc2ccc3c(n2)NCCC3)C1=O	230		
O=C(O)C[C@H](NC(=O)CN1CC[C@H](CCc2ccc3c(n2)NCCC3)C1=O)c1cccnc1	0.35		inhibition [8]: 50%
